Like-named read-outs stand apart in the source and are kept apart here.
B1: Ovalbumin: protein-based preservative (protein, UniProt P01012 2-386, looked up)
Ovalbumin: GSIGAASMEFCFDVFKELKVHHANENIFYCPIAIMSALAMVYLGAKDSTRTQINKVVRFDKLPGFGDSIEAQCGTSVNVHSSLRDILNQITKPNDVYSFSLASRLYAEERYPILPEYLQCVKELYRGGLEPINFQTAADQARELINSWVESQTNGIIRNVLQPSSVDSQTAMVLVNAIVFKGLWEKAFKDEDTQAMPFRVTEQESKPVQMMYQIGLFRVASMASEKMKILELPFASGTMSMLVLLPDEVSGLEQLESIINFEKLTEWTSSNVMEERKIKVYLPRMKMEEKYNLTSVLMAMGITDVFSSSANLSGISSAESLKISQAVHAAHAEINEAGREVVGSAEAGVDAASVSEEFRADHPFLFCIKHIATNAVLFFGRCVSP

What was measured:
Lactobacillus clearans [1] = assay: Viability of Lactobacillus clearans during lyophilization with preservatives; format: cell-based; settings: viability class
Protocol: (§1) Here, alfalfa juice and clover juice refer to liquids which are made by adding 10-fold water to alfalfa grass or clover grass to make a juice, these being used as alfalfa juice or clover juice, respectively. The amounts in which the preservatives are added are expressed in terms of the weight ratio of the preservative relative to the weight of the viable cells. […] The viability of Lactobacillus clearans is expressed as a percentage, where 100% is the viable cell count immediately after lyophilization. The viability during lyophilization is indicated as concentric circles when the viability is more than 90%, as two concentric circles to one circle when the rate is 80 to 90%, as one circle when the rate is 60 to 80%, as a square when the rate is 40 to 60%, as a triangle when the rate is 20 to 40%, and as an “x” when the rate is less than 20%.
(§2) Here, the amounts in which the preservatives were added are expressed as the weight ratio of the preservative relative to the viable cell weight. […] The viability of Lactobacillus clearans during lyophilization is indicated as two concentric circles when the viability is more than 90%, as two concentric circles to one circle when the rate is 80 to 90%, as one circle when the rate is 60 to 80%, as a square when the rate is 40 to 60%, as a triangle when the rate is 20 to 40%, and as an “x” when the rate is less than 20%.

Lactobacillus clearans [2] = assay: Viability of Lactobacillus clearans during storage with preservatives
Protocol: as §1, §2

Lactobacillus clearans [3] = assay: Changes in titer of Lactobacillus clearans during storage with preservatives; format: cell-based
Protocol: as §1, §2

Lactobacillus clearans [4] = assay: Effect of substances added during subculture on titer of Lactobacillus clearans; format: cell-based; settings: added to medium during subculture
Excerpt: The most important amino acids constituting the bacterial cells or enzymes were studied by type for their effects on Lactobacillus clearans.
We looked for substances capable of such enhancement or potentiation and conducted extensive- study.

[5] = protein-amino acid-based preservative used alone
[6] = Lactobacillus clearans, 3 months
[7] = Lactobacillus clearans, 6 months
[8] = Lactobacillus clearans, 12 months
[9] = saccharides and animal-based protein·vitamin·mineral complex preservative used alone
[10] = saccharides and animal-based complex preservative
[11] = protein-amino acid-based preservative

Molecule | Results during lyophilization (Lactobacillus clearans [1]; [5]) | Changes over time during storage, Viability (%) 3 months (Lactobacillus clearans [2]; [6]) | Changes over time during storage, Viability (%) 6 months (Lactobacillus clearans [2]; [7]) | Changes over time during storage, Viability (%) 12 months (Lactobacillus clearans [2]; [8]) | effect on titer of Lactobacillus clearans (Lactobacillus clearans [4]) | Changes over time during storage, Changes in titer (Lactobacillus clearans [3]; [11]) | also measured
N=C(N)NCCC[C@H](N)C(=O)O [Arginine] | Δ (a triangle when the rate is 20 to 40%) | 20% | 5% | 2% |  |  | Changes over time during storage, Changes in titer (Lactobacillus clearans [3]): −
OC[C@H]1O[C@H](O[C@H]2O[C@H](CO)[C@@H](O)[C@H](O)[C@H]2O)[C@H](O)[C@@H](O)[C@@H]1O [Trehalose] |  |  |  |  |  |  | Results during lyophilization (Lactobacillus clearans [1]; [9]): ◯ (one circle when the rate is 60 to 80%); Changes over time during storage, Viability (%) 3 months (Lactobacillus clearans [2]; saccharides and animal-based complex preservative, 100% = viable cell count immediately after lyophilization, 3 months): 75%; Changes over time during storage, Viability (%) 6 months (Lactobacillus clearans [2]; saccharides and animal-based complex preservative, 100% = viable cell count immediately after lyophilization, 6 months): 50%; Changes over time during storage, Viability (%) 12 months (Lactobacillus clearans [2]; saccharides and animal-based complex preservative, 100% = viable cell count immediately after lyophilization, 12 months): 30%; Changes over time during storage, Changes in titer (Lactobacillus clearans [3]; [10]): +
Nc1nc2ncc(CNc3ccc(C(=O)N[C@@H](CCC(=O)O)C(=O)O)cc3)nc2c(=O)[nH]1 [folic acid] |  |  |  |  | effective |  | 
N[C@@H](CSSC[C@H](N)C(=O)O)C(=O)O [Cystine] | ◯ (one circle when the rate is 60 to 80%) | 70% | 50% | 35% | extremely effective | + | 
N[C@@H](Cc1c[nH]c2ccccc12)C(=O)O [Tryptophan] | Δ (a triangle when the rate is 20 to 40%) | 25% | 10% | 4% |  | − | 
[Mn+2] [manganese] |  |  |  |  | effective |  | 
O=C(O)[C@@H]1CCCN1 [proline] |  |  |  |  | a rapid decrease in titer |  | 
Vitamin E |  |  |  |  | effective |  | 
C[C@H](N)C(=O)O [Alanine] | Δ (a triangle when the rate is 20 to 40%) | 30% | 15% | 5% |  | − | 
O=C1O[C@H]([C@@H](O)CO)C(O)=C1O [Vitamin C] |  |  |  |  | effective |  | 
N[C@@H](CS)C(=O)O [Cysteine] | ◯ (one circle when the rate is 60 to 80%) | 65% | 45% | 30% | extremely effective | + | 
Soluble starch |  |  |  |  |  |  | Changes over time during storage, Viability (%) 3 months (Lactobacillus clearans [2]): 60%; Changes over time during storage, Viability (%) 6 months (Lactobacillus clearans [2]): 40%; Changes over time during storage, Viability (%) 12 months (Lactobacillus clearans [2]): 15%
OC[C@H]1O[C@@H](O[C@H]2[C@H](O)[C@@H](O)C(O)O[C@@H]2CO)[C@H](O)[C@@H](O)[C@H]1O (some centres unmarked) [Lactose] |  | 70% | 50% | 20% |  |  | Results during lyophilization (Lactobacillus clearans [1]; [9]): □ (a square when the rate is 40 to 60%); Changes over time during storage, Changes in titer (Lactobacillus clearans [3]; [10]): ±
N[C@@H](CC(=O)O)C(=O)O [aspartic acid] |  |  |  |  | extremely effective |  | 
Potato starch |  |  |  |  |  |  | Changes over time during storage, Viability (%) 3 months (Lactobacillus clearans [2]): 30%; Changes over time during storage, Viability (%) 6 months (Lactobacillus clearans [2]): 20%; Changes over time during storage, Viability (%) 12 months (Lactobacillus clearans [2]): 10%
N[C@@H](CCC(=O)[O-])C(=O)[O-].[Na+].[Na+] [Sodium glutamate] | □ (a square when the rate is 40 to 60%) |  |  |  |  | ± | Changes over time during storage, Viability (%) 3 months (Lactobacillus clearans [2]; protein-amino acid-based preservative, 100% = viable cell count immediately after lyophilization, 3 months): 60%; Changes over time during storage, Viability (%) 6 months (Lactobacillus clearans [2]; protein-amino acid-based preservative, 100% = viable cell count immediately after lyophilization, 6 months): 40%; Changes over time during storage, Viability (%) 12 months (Lactobacillus clearans [2]; protein-amino acid-based preservative, 100% = viable cell count immediately after lyophilization, 12 months): 20%

Molecule | Results during lyophilization (Lactobacillus clearans [1]; [5]) | Changes over time during storage, Viability (%) 3 months (Lactobacillus clearans [2]; [6]) | Changes over time during storage, Viability (%) 6 months (Lactobacillus clearans [2]; [7]) | Changes over time during storage, Viability (%) 12 months (Lactobacillus clearans [2]; [8]) | effect on titer of Lactobacillus clearans (Lactobacillus clearans [4]) | Changes over time during storage, Changes in titer (Lactobacillus clearans [3]; [11]) | also measured
[Mo] [molybdenum] |  |  |  |  | effective |  | 
CC(C)C[C@H](N)C(=O)O [Leucine] | Δ (a triangle when the rate is 20 to 40%) | 25% | 10% | 3% |  | − | 
[Zn] [zinc] |  |  |  |  | effective |  | 
NCC(=O)O [Glycine] | Δ (a triangle when the rate is 20 to 40%) | 25% | 10% | 2% |  | − | 
NCCCC(=O)O | □ (a square when the rate is 40 to 60%) | 65% | 45% | 25% |  | ± | 
[Mg+2] [magnesium] |  |  |  |  | effective |  | 
OC[C@H]1O[C@@](CO)(O[C@H]2O[C@H](CO)[C@@H](O)[C@H](O)[C@H]2O)[C@@H](O)[C@@H]1O [Sucrose] |  | 30% | 15% | 5% |  |  | Results during lyophilization (Lactobacillus clearans [1]; [9]): Δ (a triangle when the rate is 20 to 40%); Changes over time during storage, Changes in titer (Lactobacillus clearans [3]; [10]): −
NC(=O)C[C@H](N)C(=O)O [Asparagine] | □ (a square when the rate is 40 to 60%) | 55% | 30% | 15% |  | ± | 
Yeast extract |  |  |  |  |  |  | Changes over time during storage, Viability (%) 3 months (Lactobacillus clearans [2]): 50%; Changes over time during storage, Viability (%) 6 months (Lactobacillus clearans [2]): 30%; Changes over time during storage, Viability (%) 12 months (Lactobacillus clearans [2]): 20%
calcium pantothenate |  |  |  |  | effective |  | 
N[C@@H](CCC(=O)O)C(=O)O [glutamic acid] |  |  |  |  | extremely effective |  | 
Vitamin B12 |  |  |  |  | effective |  | 
Gelatin | X (an “x” when the rate is less than 20%) |  |  |  |  |  | Changes over time during storage, Viability (%) 3 months (Lactobacillus clearans [2]): 10%; Changes over time during storage, Viability (%) 6 months (Lactobacillus clearans [2]): 3%; Changes over time during storage, Viability (%) 12 months (Lactobacillus clearans [2]): 0%
NC(=O)c1cccnc1 [nicotinamide] |  |  |  |  | effective |  | 
B1 | ◯ (one circle when the rate is 60 to 80%) |  |  |  |  | + | Changes over time during storage, Viability (%) 3 months (Lactobacillus clearans [2]): 70%; Changes over time during storage, Viability (%) 6 months (Lactobacillus clearans [2]): 50%; Changes over time during storage, Viability (%) 12 months (Lactobacillus clearans [2]): 30%
